Measured values from PubChem BioAssay AID652224 (The Scripps Research Institute Molecular Screening Center, 2013).
The source made the active and inactive calls.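 Rule for the calls: active = at least 70% inhibition of the phosphatase PP5 at 50 µM; inactive = inhibition below 70% at 50 µM.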

Molecular target: Serine/threonine-protein phosphatase 5 (Homo sapiens) (UniProt P53041)
Test: inhibition of human PP5 catalytic domain – biochemical, fluorescence, OMFP substrate, powder samples, selectivity assay for PP1 inhibitor project, late-stage follow-up (AID 652224)
Details: purified PP5c, OMFP dephosphorylation fluorescence; at 50 µM; active compounds read high

Chain of Serine/threonine-protein phosphatase 5 (Homo sapiens) (P53041 whole entry, looked up, the tested form may be a part): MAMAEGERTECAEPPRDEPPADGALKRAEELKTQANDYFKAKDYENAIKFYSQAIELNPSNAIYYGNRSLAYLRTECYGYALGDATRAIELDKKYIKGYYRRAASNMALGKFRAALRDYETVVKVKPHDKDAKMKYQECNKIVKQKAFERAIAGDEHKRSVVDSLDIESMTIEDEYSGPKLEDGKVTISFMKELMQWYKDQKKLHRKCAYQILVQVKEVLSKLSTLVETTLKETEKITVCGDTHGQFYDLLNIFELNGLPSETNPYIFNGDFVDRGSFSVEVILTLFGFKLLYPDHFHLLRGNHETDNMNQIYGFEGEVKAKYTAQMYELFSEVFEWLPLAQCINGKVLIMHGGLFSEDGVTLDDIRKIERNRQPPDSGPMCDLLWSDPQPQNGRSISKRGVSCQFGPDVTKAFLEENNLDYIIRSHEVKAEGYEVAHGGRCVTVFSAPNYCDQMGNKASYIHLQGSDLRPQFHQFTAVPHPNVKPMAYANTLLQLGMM

Row | SMILES | inhibition
1 | CN1CCN(C(c2ccccc2)c2cc(Cl)c3cccnc3c2O)CC1 (stereo unspecified) | 15.5% (inactive)
2 | CN1CCN(C(c2cccnc2)c2cc(Cl)c3cccnc3c2O)CC1 (stereo unspecified) | 9.84% (inactive)
3 | Oc1c(C(c2ccccn2)N2CCN(c3ccccc3F)CC2)cc(Cl)c2cccnc12 (stereo unspecified) | 27% (inactive)
4 | CC1CCN(C(c2ccccn2)c2cc(Cl)c3cccnc3c2O)CC1 (stereo unspecified) | 68.5% (inactive)
5 | CN1CCN(C(c2nccs2)c2cc(Cl)c3cccnc3c2O)CC1 (stereo unspecified) | 35% (inactive)
6 | Oc1c(C(c2ccccn2)N2CCC(Cc3ccccc3)CC2)cc(Cl)c2cccnc12 (stereo unspecified) | 24.6% (inactive)
7 | CN1CCN(C(c2cccs2)c2cc(Cl)c3cccnc3c2O)CC1 (stereo unspecified) | 24.7% (inactive)
8 | CN1CCN(C(c2ccc(C(F)(F)F)cn2)c2ccc3cccnc3c2O)CC1 (stereo unspecified) | 61.9% (inactive)
9 | CN1CCN(C(c2ccccn2)c2cc(Cl)c3ccccc3c2O)CC1 (stereo unspecified) | 12.1% (inactive)
10 | Cc1ccc2ccc(C(c3ccccn3)N3CCN(C)CC3)c(O)c2n1 (stereo unspecified) | 24.3% (inactive)
11 | CCN1CCN(C(c2ccccn2)c2cc(Cl)c3cccnc3c2O)CC1 (stereo unspecified) | 67.9% (inactive)
12 | CN1CCN(C(c2ccncc2)c2cc(Cl)c3cccnc3c2O)CC1 (stereo unspecified) | 9.09% (inactive)
13 | CN1CCN(C(c2ccccn2)c2cc(Cl)c3cccnc3c2O)CC1 (stereo unspecified) | 75.8%
14 | CC(C)(C)OC(=O)N1CCN(C(c2ccccn2)c2cc(Cl)c3cccnc3c2O)CC1 (stereo unspecified) | 37.1% (inactive)
15 | CN1CCN(C(c2ccccn2)c2cc(Cl)ccc2O)CC1 (stereo unspecified) | 4.27% (inactive)
16 | CN1CCN(Cc2cc(Cl)c3cccnc3c2O)CC1 | 20.1% (inactive)

Continued, values first:

Row | inhibition | SMILES
17 | 58.8% (inactive) | COc1ccnc(C(c2ccc3cccnc3c2O)N2CCN(C)CC2)c1 (stereo unspecified)
18 | 9.57% (inactive) | CN1CCC(NC(c2ccccn2)c2ccc3cccnc3c2O)CC1 (stereo unspecified)
19 | 49.2% (inactive) | CN1CCN(C(c2ccccn2)c2ccc3cccnc3c2O)CC1 (stereo unspecified)
20 | 14.4% (inactive) | Oc1c(C(c2ccccn2)N2CCNCC2)cc(Cl)c2cccnc12 (stereo unspecified)
21 | 32.4% (inactive) | Oc1c(CN2CCN(c3ccccn3)CC2)cc(Cl)c2cccnc12
22 | 54.8% (inactive) | Cc1ccnc(C(c2ccc3cccnc3c2O)N2CCN(C)CC2)c1 (stereo unspecified)
23 | -2.26% (inactive) | Cc1cccc(C(c2ccc3cccnc3c2O)N2CCN(C)CC2)n1 (stereo unspecified)
24 | -0.77% (inactive) | CN1CCN(C(c2ncccn2)c2ccc3cccnc3c2O)CC1 (stereo unspecified)
25 | -6.11% (inactive) | COCOc1c(C(c2ccccn2)N2CCN(C)CC2)ccc2cccnc12 (stereo unspecified)
26 | -1.09% (inactive) | COc1cccc(C(c2ccc3cccnc3c2O)N2CCN(C)CC2)n1 (stereo unspecified)
27 | 29.4% (inactive) | CN1CCN(C(c2ccc3cccnc3c2O)c2ncccc2C(F)(F)F)CC1 (stereo unspecified)
28 | 66.2% (inactive) | Cc1ccc(C(c2ccc3cccnc3c2O)N2CCN(C)CC2)nc1 (stereo unspecified)
29 | 36.3% (inactive) | Oc1c(C(NC2CCCCC2)c2ccccn2)ccc2cccnc12 (stereo unspecified)
30 | 45.2% (inactive) | Oc1c(C(c2ccccn2)N2CCCC2)ccc2cccnc12 (stereo unspecified)
31 | 21.3% (inactive) | Oc1c(CN2CCN(c3ccccc3)CC2)cc(Cl)c2cccnc12
32 | 21.5% (inactive) | CCOC(c1ccccn1)c1cc(Cl)c2cccnc2c1O (stereo unspecified)
33 | 48.5% (inactive) | COc1ccc(C(c2ccc3cccnc3c2O)N2CCN(C)CC2)nc1 (stereo unspecified)
34 | 72.5% | Oc1c(C(c2ccccn2)N2CCOCC2)cc(Cl)c2cccnc12 (stereo unspecified)
35 | 27% (inactive) | Oc1c(Cc2ccccn2)ccc2cccnc12
36 | 66.1% (inactive) | Cc1cccnc1C(c1ccc2cccnc2c1O)N1CCN(C)CC1 (stereo unspecified)
